Results taken from US12435058B2, “KIF18A inhibitors” (AMGEN INC., priority 2019, dated 2025).

Target: T1, Recombinant human KIF18A (1-467 His-tagged) protein (Homo sapiens, UniProt Q8NI77)
T1 construct: Recombinant human KIF18A (1-467 His-tagged) protein; His; made in house
Assay: KIF18A Enzyme Assay (microtubule-stimulated ATPase activity, ADP-Glo)
Assay type: biochemical
Conditions: KIF18A protein 30 nM, ATP 75 μM (at Km), 30 μg/mL pig microtubules, ADP-Glo luminescence
Text: For compounds in Table A, the following assay conditions were employed:
KIF18A Enzyme Assay: Microtubule-stimulated ATPase activity assay is used to measure KIF18A enzyme activity after treatment with compound. Compounds were 2-fold serially diluted in DMSO (Sigma Inc) over 22-point concentration range. Recombinant human KIF18A (1-467 His-tagged) protein was expressed using a baculovirus system and purified by affinity chromatography by Amgen Inc. Concentrations of KIF18A protein, microtubules (MT), and ATP in the reaction were optimized for standardized homogenous enzyme assay using ADP-Glom Kinase/ATPase Assay Kit (Promega Inc). The assay measures ADP formed from the ATPase reaction. […] Read luminescence using EnVision microplate reader with ultra-luminescence module (Perkin Elmer Inc). Concentration-response curve-fitting and IC50 determination was performed using Genedata Screener Software (Standard 15.0.1, Genedata Inc) with a four-parameter logistic regression fit model.

T1 sequence (Q8NI77 1-467): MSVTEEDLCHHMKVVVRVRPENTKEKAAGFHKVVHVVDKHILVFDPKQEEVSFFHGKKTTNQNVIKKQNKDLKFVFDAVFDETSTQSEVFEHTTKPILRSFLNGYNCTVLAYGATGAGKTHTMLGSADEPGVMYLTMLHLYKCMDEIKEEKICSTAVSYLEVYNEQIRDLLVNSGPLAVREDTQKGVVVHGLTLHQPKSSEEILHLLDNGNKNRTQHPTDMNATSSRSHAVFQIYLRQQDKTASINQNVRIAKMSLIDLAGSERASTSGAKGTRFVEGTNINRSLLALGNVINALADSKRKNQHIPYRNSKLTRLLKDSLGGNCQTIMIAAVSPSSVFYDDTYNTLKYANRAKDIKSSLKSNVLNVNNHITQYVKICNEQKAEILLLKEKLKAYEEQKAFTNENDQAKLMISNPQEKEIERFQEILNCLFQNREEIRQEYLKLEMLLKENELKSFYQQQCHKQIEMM
T1 sequence (P02550 whole entry partner): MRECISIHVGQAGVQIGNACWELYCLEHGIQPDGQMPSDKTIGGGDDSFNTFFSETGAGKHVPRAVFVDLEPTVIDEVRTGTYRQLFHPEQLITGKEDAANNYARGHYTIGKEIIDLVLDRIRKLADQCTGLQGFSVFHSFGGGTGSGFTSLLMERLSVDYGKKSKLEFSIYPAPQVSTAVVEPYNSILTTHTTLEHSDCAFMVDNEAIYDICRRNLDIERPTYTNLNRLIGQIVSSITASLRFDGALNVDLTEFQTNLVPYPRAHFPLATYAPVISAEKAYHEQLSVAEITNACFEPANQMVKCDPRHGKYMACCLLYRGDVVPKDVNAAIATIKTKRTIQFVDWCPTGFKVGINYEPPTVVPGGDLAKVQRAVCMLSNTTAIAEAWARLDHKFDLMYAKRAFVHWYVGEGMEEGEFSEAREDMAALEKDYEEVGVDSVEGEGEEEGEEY
T1 sequence (P02554 whole entry partner): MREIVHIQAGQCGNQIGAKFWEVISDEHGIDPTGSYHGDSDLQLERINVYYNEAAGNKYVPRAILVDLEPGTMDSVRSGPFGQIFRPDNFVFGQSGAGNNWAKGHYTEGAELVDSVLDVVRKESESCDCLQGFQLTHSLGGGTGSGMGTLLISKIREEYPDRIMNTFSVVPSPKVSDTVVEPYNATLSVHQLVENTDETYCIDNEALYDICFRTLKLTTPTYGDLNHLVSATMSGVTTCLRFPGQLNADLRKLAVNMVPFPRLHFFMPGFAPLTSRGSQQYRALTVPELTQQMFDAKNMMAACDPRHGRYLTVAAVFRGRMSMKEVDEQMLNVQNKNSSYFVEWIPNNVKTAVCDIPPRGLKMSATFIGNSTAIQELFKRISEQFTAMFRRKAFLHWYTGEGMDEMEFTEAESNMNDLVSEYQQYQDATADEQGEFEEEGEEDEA

Row | IC50 [nM] | Structure (SMILES)
1 | 67 | CC(C)(CO)Nc1cnc(C(=O)Nc2cccc(S(=O)(=O)[C@H]3CCC(F)(F)C3)c2)c(N2CCC3(CC2)CC3)n1 (single isomer, unassigned) [Example 102-1]
2 | 111 | CC(C)(CO)Nc1cnc(C(=O)Nc2cccc(S(=O)(=O)[C@@H]3CCC(F)(F)C3)c2)c(N2CCC3(CC2)CC3)n1 (single isomer, unassigned) [Example 102-2]
3 | 174 | CC(C)(C)NS(=O)(=O)c1cccc(NC(=O)c2ncc([C@@](C)(O)C(F)(F)F)nc2N2CCC3(CC2)CC3)c1 (single isomer, unassigned) [Example 105-1]
4 | 356 | CC(C)(C)NS(=O)(=O)c1cccc(NC(=O)c2ncc([C@](C)(O)C(F)(F)F)nc2N2CCC3(CC2)CC3)c1 (single isomer, unassigned) [Example 105-2]
5 | 82 | CC(C)(C)NS(=O)(=O)c1cccc(NC(=O)c2ncc(NC(C)(C)CO)nc2N2CCC3(CC2)CC3)c1 [Example 100, N-(3-(N-(tert-Butyl)sulfamoyl)phenyl)-5-((1-hydroxy-2-methylpropan-2-yl)amino)-3-(6-azaspiro[2.5]octan-6-yl)pyrazine-2-carboxamide]
6 | 177 | CC1CCN(c2nc(NC(C)(C)CO)cnc2C(=O)Nc2cccc(S(=O)(=O)NC(C)(C)C)c2)CC1 [Example 100-1, N-(3-(N-(tert-butyl)sulfamoyl)phenyl)-5-((1-hydroxy-2-methylpropan-2-yl)amino)-3-(4-methylpiperidin-1-yl)pyrazine-2-carboxamide]
7 | 342 | CC(C)(C)NS(=O)(=O)c1cccc(NC(=O)c2ncc(NC(C)(C)CO)nc2N2CCC(F)(F)CC2)c1 [Example 100-2, N-(3-(N-(tert-butyl)sulfamoyl)phenyl)-3-(4,4-difluoropiperidin-1-yl)-5-((1-hydroxy-2-methylpropan-2-yl)amino)pyrazine-2-carboxamide]
8 | 455 | CC(C)(C)NS(=O)(=O)c1cccc(NC(=O)c2ncc(NC(C)(C)CO)nc2N2CCC(C(F)(F)F)CC2)c1 [Example 100-3, N-(3-(N-(tert-butyl)sulfamoyl)phenyl)-5-((1-hydroxy-2-methylpropan-2-yl)amino)-3-(4-(trifluoromethyl)piperidin-1-yl)pyrazine-2-carboxamide]
9 | 133 | CCC1CCN(c2nc(NC(C)(C)CO)cnc2C(=O)Nc2cccc(S(=O)(=O)NC(C)(C)C)c2)CC1 [Example 100-4, N-(3-(N-(tert-butyl)sulfamoyl)phenyl)-3-(4-ethylpiperidin-1-yl)-5-((1-hydroxy-2-methylpropan-2-yl)amino)pyrazine-2-carboxamide]
10 | 190 | CC1(C)CCN(c2nc(NC(C)(C)CO)cnc2C(=O)Nc2cccc(S(=O)(=O)NC(C)(C)C)c2)CC1 [Example 100-5, N-(3-(N-(tert-butyl)sulfamoyl)phenyl)-3-(4,4-dimethylpiperidin-1-yl)-5-((1-hydroxy-2-methylpropan-2-yl)amino)pyrazine-2-carboxamide]
11 | 319 | CC(C)C1CCN(c2nc(NC(C)(C)CO)cnc2C(=O)Nc2cccc(S(=O)(=O)NC(C)(C)C)c2)CC1 [Example 100-6, N-(3-(N-(tert-butyl)sulfamoyl)phenyl)-5-((1-hydroxy-2-methylpropan-2-yl)amino)-3-(4-isopropylpiperidin-1-yl)pyrazine-2-carboxamide]
12 | 788 | CC(C)(C)NS(=O)(=O)c1cccc(NC(=O)c2ncc(NC(C)(C)CO)nc2N2CCC(C(C)(C)C)CC2)c1 [Example 100-7, 3-(4-(tert-butyl)piperidin-1-yl)-N-(3-(N-(tert-butyl)sulfamoyl)phenyl)-5-((1-hydroxy-2-methylpropan-2-yl)amino)pyrazine-2-carboxamide]
13 | 163 | CCC(C)C1CCN(c2nc(NC(C)(C)CO)cnc2C(=O)Nc2cccc(S(=O)(=O)NC(C)(C)C)c2)CC1 (stereo not shown) [Example 100-8, 3-(4-(sec-butyl)piperidin-1-yl)-N-(3-(N-(tert-butyl)sulfamoyl)phenyl)-5-((1-hydroxy-2-methylpropan-2-yl)amino)pyrazine-2-carboxamide]
14 | 118 | CCCC1CCN(c2nc(NC(C)(C)CO)cnc2C(=O)Nc2cccc(S(=O)(=O)NC(C)(C)C)c2)CC1 [Example 100-9, N-(3-(N-(tert-butyl)sulfamoyl)phenyl)-5-((1-hydroxy-2-methylpropan-2-yl)amino)-3-(4-propylpiperidin-1-yl)pyrazine-2-carboxamide]
15 | 221 | CC(C)(C)NS(=O)(=O)c1cccc(NC(=O)c2ncc(NC(C)(C)CO)nc2N2CCC(C3CC3)CC2)c1 [Example 100-10, N-(3-(N-(tert-butyl)sulfamoyl)phenyl)-3-(4-cyclopropylpiperidin-1-yl)-5-((1-hydroxy-2-methylpropan-2-yl)amino)pyrazine-2-carboxamide]
16 | 1390 | COCC1CCN(c2nc(NC(C)(C)CO)cnc2C(=O)Nc2cccc(S(=O)(=O)NC(C)(C)C)c2)CC1 [Example 100-11, N-(3-(N-(tert-butyl)sulfamoyl)phenyl)-5-((1-hydroxy-2-methylpropan-2-yl)amino)-3-(4-(methoxymethyl)piperidin-1-yl)pyrazine-2-carboxamide]
17 | 931 | CC(C)(C)NS(=O)(=O)c1cccc(NC(=O)c2ncc(NC(C)(C)CO)nc2N2CC3(CCC3)C2)c1 [Example 100-12, N-(3-(N-(tert-butyl)sulfamoyl)phenyl)-5-((1-hydroxy-2-methylpropan-2-yl)amino)-3-(2-azaspiro[3.3]heptan-2-yl)pyrazine-2-carboxamide]
18 | 410 | CC(C)(C)NS(=O)(=O)c1cccc(NC(=O)c2ncc(NC(C)(C)CO)nc2N2CC3(CCCCC3)C2)c1 [Example 100-13, N-(3-(N-(tert-butyl)sulfamoyl)phenyl)-5-((1-hydroxy-2-methylpropan-2-yl)amino)-3-(2-azaspiro[3.5]nonan-2-yl)pyrazine-2-carboxamide]
19 | 1380 | CC(C)(C)NS(=O)(=O)c1cccc(NC(=O)c2ncc(NC(C)(C)CO)nc2N2CCC3(CCOCC3)CC2)c1 [Example 100-14, N-(3-(N-(tert-butyl)sulfamoyl)phenyl)-5-((1-hydroxy-2-methylpropan-2-yl)amino)-3-(3-oxa-9-azaspiro[5.5]undecan-9-yl)pyrazine-2-carboxamide]
20 | 77 | CC(C)(C)NS(=O)(=O)c1cccc(NC(=O)c2ncc(NC(C)(C)CO)nc2N2CCC3(CCC3)CC2)c1 [Example 100-15, N-(3-(N-(tert-butyl)sulfamoyl)phenyl)-5-((1-hydroxy-2-methylpropan-2-yl)amino)-3-(7-azaspiro[3.5]nonan-7-yl)pyrazine-2-carboxamide]
21 | 215 | CC(C)(C)NS(=O)(=O)c1cccc(NC(=O)c2ncc(NC(C)(C)CO)nc2N2CCC3(CC2)CC(F)(F)C3)c1 [Example 100-16, N-(3-(N-(tert-butyl)sulfamoyl)phenyl)-3-(2,2-difluoro-7-azaspiro[3.5]nonan-7-yl)-5-((1-hydroxy-2-methylpropan-2-yl)amino)pyrazine-2-carboxamide]
22 | 129 | CC(C)(C)NS(=O)(=O)c1cccc(NC(=O)c2ncc(NC(C)(C)CO)nc2N2CCC3(CCCC3)CC2)c1 [Example 100-17, N-(3-(N-(tert-butyl)sulfamoyl)phenyl)-5-((1-hydroxy-2-methylpropan-2-yl)amino)-3-(8-azaspiro[4.5]decan-8-yl)pyrazine-2-carboxamide]
23 | 231 | Cc1cc(NC(=O)c2ncc(NC(C)(C)CO)nc2N2CCC3(CC2)CC3)cc(S(=O)(=O)NC(C)(C)C)c1 [Example 101, N-(3-(N-(tert-Butyl)sulfamoyl)-5-methylphenyl)-5-((1-hydroxy-2-methylpropan-2-yl)amino)-3-(6-azaspiro[2.5]octan-6-yl)pyrazine-2-carboxamide]
24 | 108 | CC(C)(CO)Nc1cnc(C(=O)Nc2cccc(S(=O)(=O)C(C)(C)C(F)(F)F)c2)c(N2CCC3(CC2)CC3)n1 [Example 101-1, 5-((1-hydroxy-2-methylpropan-2-yl)amino)-3-(6-azaspiro[2.5]octan-6-yl)-N-(3-((1,1,1-trifluoro-2-methylpropan-2-yl)sulfonyl)phenyl)pyrazine-2-carboxamide]
25 | 218 | CC(C)(CO)Nc1cnc(C(=O)Nc2cccc(S(=O)(=O)C(C)(C)C)c2)c(N2CCC3(CC2)CC3)n1 [Example 101-2, N-(3-(tert-butylsulfonyl)phenyl)-5-((1-hydroxy-2-methylpropan-2-yl)amino)-3-(6-azaspiro[2.5]octan-6-yl)pyrazine-2-carboxamide]
26 | 204 | CC(C)(CO)Nc1cnc(C(=O)Nc2cccc(S(=O)(=O)C3(C)CCC3)c2)c(N2CCC3(CC2)CC3)n1 [Example 101-3, 5-((1-hydroxy-2-methylpropan-2-yl)amino)-N-(3-((1-methylcyclobutyl)sulfonyl)phenyl)-3-(6-azaspiro[2.5]octan-6-yl)pyrazine-2-carboxamide]
27 | 172 | CC(C)(C)NS(=O)(=O)c1cc(F)cc(NC(=O)c2ncc(NC(C)(C)CO)nc2N2CCC3(CC2)CC3)c1 [Example 101-4, N-(3-(N-(tert-butyl)sulfamoyl)-5-fluorophenyl)-5-((1-hydroxy-2-methylpropan-2-yl)amino)-3-(6-azaspiro[2.5]octan-6-yl)pyrazine-2-carboxamide]
28 | 527 | CC(C)(C)NS(=O)(=O)c1cccc(NC(=O)c2ncc(NC(C)(C)CO)nc2N2CCC3(CC2)CC3)c1F [Example 101-5, N-(3-(N-(tert-butyl)sulfamoyl)-2-fluorophenyl)-5-((1-hydroxy-2-methylpropan-2-yl)amino)-3-(6-azaspiro[2.5]octan-6-yl)pyrazine-2-carboxamide]
